According to US20080312184A1 (priority 2005, published 2008):
Like-named read-outs stand apart in the source and are kept apart here.

Test system: late blight phenylamide-resistant strain (zoospore+zoosporangia)
Type: in vivo, tomatoes (cultivar: sekai-ichi)
Details: single active ingredient
[1] = Table 3, treated concentration 10 ppm, examined after 5 days
[2] = Table 3, treated concentration 5 ppm, examined after 5 days

Molecule: C[C@@]1(c2ccc(Oc3ccccc3)cc2)OC(=O)N(Nc2ccccc2)C1=O (racemic) [Famoxadone, famoxadone]
- Control Value (Table 3, treated concentration 20 ppm, examined after 5 days): 62

Molecule: CC(C)CC(C)c1sccc1NC(=O)c1cn(C)nc1C(F)(F)F (racemic) [P (penthiopyrad), (RS)—N-[2-(1,3-dimethylbutyl)thiophen-3-yl]-1-methyl-3-tri fluoromethyl-1H-pyrazole-4-carboxamide]
- Control Value [1]: 20
- Control Value (Table 9 (Example B), treated concentration 10 ppm): 20

Molecule: CC(C)OC(=O)N[C@H](C(=O)N[C@H](C)c1nc2ccc(F)cc2s1)C(C)C [Benthiavalicarb-isopropyl, benthiavalicarb-isopropyl]
- Control Value [2]: 70

Molecule: Cc1ccc(-c2c(Cl)nc(C#N)n2S(=O)(=O)N(C)C)cc1 [Cyazofamid, cyazofamid]
- Control Value [1]: 70

Molecule: CCNc1nc(CC)c(C(=O)NC(C#N)c2cccs2)s1 (centres unmarked) [Ethaboxam, ethaboxam]
- Control Value [1]: 62

Molecule: CSC1=N[C@@](C)(c2ccccc2)C(=O)N1Nc1ccccc1 [Fenamidone, fenamidone]
- Control Value [1]: 58

Molecule: Cc1ccc(C(C)NC(=O)[C@@H](NC(=O)OC(C)C)C(C)C)cc1 (some centres unmarked) [Iprovalicarb, iprovalicarb]
- Control Value [2]: 70

Molecule: COC(=O)N(OC)c1ccccc1COc1ccn(-c2ccc(Cl)cc2)n1 [Pyraclostrobin, pyraclostrobin]
- Control Value (Table 9 (Example B), treated concentration 5 ppm): 62

Molecule: CCC(C)(NC(=O)c1cc(Cl)c(C)c(Cl)c1)C(=O)CCl (centres unmarked) [Zoxamide, zoxamide]
- Control Value [1]: 60

Molecule: metiram
- Control Value (Table 3, treated concentration 50 ppm, examined after 5 days): 56
